From US20110098269A1, “Substituted Pyridazinone Derivatives as Histamine-3 (H3) Receptor Ligands” (Cephalon, Inc., priority 2008, published 2011)

Tests used:
[1] = biological target: T1, rat histamine H3 receptor (Rattus norvegicus, UniProt Q9QYN8); test: Rat H3 radioligand binding ([3H]-N-alpha-methylhistamine, CHO-A3 cell membranes); conditions: Rat H3 binding constant, class symbols; read-out: rH3 Ki
T1 construct: encoding the entire 445-amino-acid rat histamine H3 receptor; expressed in transfected cells
Text: Cell line development and membrane preparation. The rat H3 receptor cDNA was PCR amplified from reverse-transcribed RNA pooled from rat thalamus, hypothalamus, striatum and prefrontal cortex with a sequence corresponding to by #338-1672 of Genbank file #NM_053506, encoding the entire 445-amino-acid rat histamine H3 receptor. This was engineered into the pIRES-neo3 mammalian expression vector, which was stably transfected into the CHO-A3 cell line (Euroscreen, Belgium), followed by clonal selection by limiting dilution. Cells were harvested and cell pellets were frozen (−80° C.). Cell pellets were resuspended in 5 mM Tris-HCl, pH 7.5 with 5 nM EDTA and a cocktail of protease inhibitors (Complete Protease Inhibitor Tablets, Roche Diagnostics). Cells were disrupted using a polytron cell homogenizer and the suspension was centrifuged at 1000×g for 10 minutes at 4° C. The pellet was discarded and the supernatant centrifuged at 40,000×g for 30 min at 4° C. This membrane pellet was washed in membrane buffer containing 50 mM Tris-HCl, pH 7.5 with 0.6 mM EDTA, 5 mM MgCl2 and protease inhibitors, recentrifuged as above and the final pellet resuspended in membrane buffer plus 250 mM sucrose and frozen at −80° C.
(§1) Radioligand Binding. Membranes were resuspended in 50 mM Tris HCl (pH 7.4), 5 mM MgCl2, 0.1% BSA. The membrane suspensions (10 μg protein per well) were incubated in a 96 well microtiter plate with [^3H]-N-alpha-methylhistamine (approximately 1 nM final concentration), test compounds at various concentrations (0.01 nM-30 μM) and scintillation proximity beads (Perkin Elmer, FlashBlueGPCR Scintillating Beads) in a final volume of 80 μl for 4 hours at room temperature, protected from light. Non-specific binding was determined in the presence of 10 μM clobenpropit. Radioligand bound to receptor, and therefore in proximity to the scintillation beads, was measured using a MicroBeta scintillation counter.

[2] = biological target: T2, human H3 receptor (Homo sapiens, UniProt Q9Y5N1); test: Human H3 radioligand binding ([3H]-N-alpha-methylhistamine, CHO cell membranes); conditions: Human H3 binding constant, class symbols; read-out: hH3 Ki
T2 construct: expressed in transfected cells
Protocol: Methods: CHO cells stably expressing the human H3 receptor (GenBank: NM_007232) were harvested and cell pellets were frozen (−80° C.). Cell pellets were resuspended in 5 mM Tris-HCl, pH 7.5 with 5 nM EDTA and a cocktail of protease inhibitors (Complete Protease Inhibitor Tablets, Roche Diagnostics). Cells were disrupted using a polytron cell homogenizer and the suspension was centrifuged at 1000×g for 10 minutes at 4° C. The pellet was discarded and the supernatant centrifuged at 40,000×g for 30 min at 4° C. This membrane pellet was washed in membrane buffer containing 50 mM Tris-HCl, pH 7.5 with 0.6 mM EDTA, 5 mM MgCl2 and protease inhibitors, recentrifuged as above and the final pellet resuspended in membrane buffer plus 250 mM sucrose and frozen at −80° C.
as §1

T1 sequence (Q9QYN8 whole entry): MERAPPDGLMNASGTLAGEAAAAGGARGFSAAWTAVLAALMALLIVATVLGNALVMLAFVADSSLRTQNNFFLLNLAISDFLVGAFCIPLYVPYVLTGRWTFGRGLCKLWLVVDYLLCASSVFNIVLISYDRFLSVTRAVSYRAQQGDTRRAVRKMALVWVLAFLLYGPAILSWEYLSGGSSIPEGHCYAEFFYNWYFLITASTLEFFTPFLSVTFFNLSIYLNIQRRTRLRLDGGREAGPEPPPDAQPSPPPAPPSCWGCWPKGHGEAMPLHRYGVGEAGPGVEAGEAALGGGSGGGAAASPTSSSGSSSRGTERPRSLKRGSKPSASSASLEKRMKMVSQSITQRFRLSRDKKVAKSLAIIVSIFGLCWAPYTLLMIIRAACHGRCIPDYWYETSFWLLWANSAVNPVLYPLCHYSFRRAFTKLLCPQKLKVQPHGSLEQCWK
T2 sequence (Q9Y5N1 whole entry): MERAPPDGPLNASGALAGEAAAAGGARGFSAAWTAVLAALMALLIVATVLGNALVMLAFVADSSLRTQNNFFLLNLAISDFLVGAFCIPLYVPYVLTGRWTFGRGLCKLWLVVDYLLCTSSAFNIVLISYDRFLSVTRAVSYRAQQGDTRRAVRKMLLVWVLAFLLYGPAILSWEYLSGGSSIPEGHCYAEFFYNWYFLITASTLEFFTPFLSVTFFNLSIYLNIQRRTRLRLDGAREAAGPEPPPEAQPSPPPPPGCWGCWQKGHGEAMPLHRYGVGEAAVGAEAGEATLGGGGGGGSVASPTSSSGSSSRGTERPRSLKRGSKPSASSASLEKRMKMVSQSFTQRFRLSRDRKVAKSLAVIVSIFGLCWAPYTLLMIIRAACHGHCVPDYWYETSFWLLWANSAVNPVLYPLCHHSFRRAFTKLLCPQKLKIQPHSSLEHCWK

Row | SMILES | Ki [1] [nM] | melting point [°C] | Ki [2] [nM]
1 | CCCCn1nc(-c2ccc3c(c2)CCN(C2CCC2)CC3)ccc1=O [Example 14, 2-Butyl-6-(3-cyclobutyl-2,3,4,5-tetrahydro-1H-benzo[d]azepin-7-yl)-2H-pyridazin-3-one] | < 100 | 88 to 89 | < 100
2 | CC(C)CN1N=C(c2ccc3c(c2)CCN(C2CCC2)CC3)CCC1=O [Example 15, 6-(3-Cyclobutyl-2,3,4,5-tetrahydro-1H-benzo[d]azepin-7-yl)-2-isobutyl-4,5-dihydro-2H-pyridazin-3-one] | 100 to 1000 | 134 to 135 | < 100
3 | CC(C)Cn1nc(-c2ccc3c(c2)CCN(C2CCC2)CC3)ccc1=O [Example 16, 6-(3-Cyclobutyl-2,3,4,5-tetrahydro-1H-benzo[d]azepin-7-yl)-2-isobutyl-2H-pyridazin-3-one] | 100 to 1000 | 245 to 246 | < 100
4 | O=C1CCC(c2ccc3c(c2)CCN(C2CCC2)CC3)=NN1CCO [Example 17, 6-(3-Cyclobutyl-2,3,4,5-tetrahydro-1H-benzo[d]azepin-7-yl)-2-(2-hydroxy-ethyl)-4,5-dihydro-2H-pyridazin-3-one] | < 100 | 141 to 142 | < 100
5 | O=c1ccc(-c2ccc3c(c2)CCN(C2CCC2)CC3)nn1CCO [Example 18, 6-(3-Cyclobutyl-2,3,4,5-tetrahydro-1H-benzo[d]azepin-7-yl)-2-(2-hydroxy-ethyl)-2H-pyridazin-3-one] | < 100 | 157 to 158 | < 100
6 | O=C1CCC(c2ccc3c(c2)CCN(C2CCC2)CC3)=NN1C1CCC1 [Example 19, 2-Cyclobutyl-6-(3-cyclobutyl-2,3,4,5-tetrahydro-1H-benzo[d]azepin-7-yl)-4,5-dihydro-2H-pyridazin-3-one] | 100 to 1000 | 126 to 128 | < 100
7 | Cn1nc(-c2ccc3c(c2)CCNCC3)ccc1=O [Example 20, 2-Methyl-6-(2,3,4,5-tetrahydro-1H-benzo[d]azepin-7-yl)-2H-pyridazin-3-one] | > 1000 | 183 to 185 | > 1000
8 | Cn1nc(-c2ccc3c(c2)CCN(C2CCC2)CC3)ccc1=O [Example 21, 6-(3-Cyclobutyl-2,3,4,5-tetrahydro-1H-benzo[d]azepin-7-yl)-2-methyl-2H-pyridazin-3-one] | < 100 | 287 to 288 | < 100
9 | CS(=O)(=O)c1ccc(-n2nc(-c3ccc4c(c3)CCN(C3CCC3)CC4)ccc2=O)cc1 [Example 25, 6-(3-Cyclobutyl-2,3,4,5-tetrahydro-1H-benzo[d]azepin-7-yl)-2-(4-methanesulfonyl-phenyl)-2H-pyridazin-3-one] | 100 to 1000 | 225 | < 100
10 | Cn1nc(-c2ccc(Oc3ccc4c(c3)CCN(C3CCC3)CC4)nc2)ccc1=O [Example 26, 6-[6-(3-Cyclobutyl-2,3,4,5-tetrahydro-1H-benzo[d]azepin-7-yloxy)-pyridin-3-yl]-2-methyl-2H-pyridazin-3-one] | < 100 | 134 to 137 | < 100
11 | O=c1ccc(-c2ccc(Oc3ccc4c(c3)CCN(C3CCC3)CC4)nc2)n[nH]1 [Example 27, 6-[6-(3-Cyclobutyl-2,3,4,5-tetrahydro-1H-benzo[d]azepin-7-yloxy)-pyridin-3-yl]-2H-pyridazin-3-one] | < 100 | 215 to 220 | < 100
12 | O=c1ccc(-c2ccc(Oc3ccc4c(c3)CCN(C3CCC3)CC4)nc2)nn1-c1ccccn1 [Example 28, 6-[6-(3-Cyclobutyl-2,3,4,5-tetrahydro-1H-benzo[d]azepin-7-yloxy)-pyridin-3-yl]-2-pyridin-2-yl-2H-pyridazin-3-one] | < 100 | 178 to 182 | < 100
13 | CC(C)n1nc(-c2ccc(Oc3ccc4c(c3)CCN(C3CCC3)CC4)nc2)ccc1=O [Example 29, 6-[6-(3-Cyclobutyl-2,3,4,5-tetrahydro-1H-benzo[d]azepin-7-yloxy)-pyridin-3-yl]-2-isopropyl-2H-pyridazin-3-one] | < 100 | 70 to 73 | < 100
14 | O=C1NN=C(c2ccc3c(c2)CCN(C2CCC2)CC3)C2CCCC12 (stereo not drawn) [Example 42, 4-(3-Cyclobutyl-2,3,4,5-tetrahydro-1H-benzo[d]azepin-7-yl)-2,4a,5,6,7,7a-hexahydro-cyclopenta[d]pyridazin-1-one] | < 100 | 198 to 201 | < 100
15 | O=C1NN=C(c2ccc3c(c2)CCN(C2CCC2)CC3)C2CCCCC12 (stereo not drawn) [Example 44, 4-(3-Cyclobutyl-2,3,4,5-tetrahydro-1H-benzo[d]azepin-7-yl)-4-a,5,6,7,8,8a-hexahydro-2H-phthalazin-1-one] | < 100 | 223 to 225 | < 100
16 | Cn1nc(-c2ccc(C(=O)N3CCN(C4CCCC4)CC3)cc2)ccc1=O [Example 46, 6-[4-(4-Cyclopentyl-piperazine-1-carbonyl)-phenyl]-2-methyl-2H-pyridazin-3-one] | 100 to 1000 | 177 to 179 | 100 to 1000
17 | CC(C)N1CCN(C(=O)c2ccc(-c3ccc(=O)n(C)n3)cc2)CC1 [Example 47, 6-[4-(4-Isopropyl-piperazine-1-carbonyl)-phenyl]-2-methyl-2H-pyridazin-3-one] | 100 to 1000 | 131 to 132 | 100 to 1000
18 | O=C(c1ccc(-c2ccc(=O)[nH]n2)cc1)N1CCC[C@H]1CN1CCCC1 [Example 50, 6-[4-((S)-2-Pyrrolidin-1-ylmethyl-pyrrolidine-1-carbonyl)-phenyl]-2H-pyridazin-3-one] | < 100 | 62 to 66 | < 100
19 | C[C@@H]1CCCN1CCc1ccc(-c2ccc(=O)[nH]n2)cc1 [Example 51, 6-{4-[2-((R)-2-Methyl-pyrrolidin-1-yl)-ethyl]-phenyl}-2H-pyridazin-3-one] | < 100 | 159 to 161 | < 100
